Measured values from patent US12054526B2, “Polypeptides, nucleic acid molecules, compositions, and related methods” (CHILDREN'S HOSPITAL MEDICAL CENTER, priority 2018, dated 2024).
“Also recorded” adds a separate entry of the source.

Assays:
WT C2C12 myoblasts = assay: Synchronized fusion assay (LPC), WT C2C12; type: cell-based; conditions: 50 μM CPZ 60 seconds at LPC removal, assayed after 30 minutes
From the text: (§1) We uncoupled the myoblast fusion stage of myogenic differentiation from the stages that prepare the cells for fusion using a fusion-synchronization approach described previously (GAMAGE et al. (2017) “Insights into the localization and function of myomaker during myoblast fusion” J Biol Chem, Vol. 292, pp. 17272-17289, which is herein incorporated by reference in its entirety; LEIKINA et al. (2013) “Extracellular annexins and dynamin are important for sequential steps in myoblast fusion” J Cell Biol, Vol. 200, pp. 109-123, which is herein incorporated by reference in its entirety). In brief, fusion-committed myoblasts were placed into complete medium supplemented with 150 μM lauroyl LPC (#855475P, Avanti Polar Lipids). 16 h later we washed the cells three times with LPC-free complete medium. […]
(§2) We labeled C2C12 cells 48 hours after placement in the differentiation medium, and co-plated differently labeled cells in a 1-to-1 ratio. […] Fusion was scored 30 min after LPC removal and thus […] after placing the cells into differentiation medium. […] We kept the cells in LPC-supplemented differentiation medium for 16 hours, washed out LPC with LPC-free medium and 30 minutes later (˜24 hours after placing the cells into differentiation medium) scored fusion. […]

Myomaker^−/− C2C12 cells = assay: Synchronized fusion assay (LPC), Myomaker^−/− C2C12; type: cell-based; conditions: 50 μM CPZ 60 seconds at LPC removal, assayed after 30 minutes
Protocol: We labeled C2C12 cells 48 hours after placement in the differentiation medium, and co-plated differently labeled cells in a 1-to-1 ratio. […] Fusion was scored 30 min after LPC removal and thus −68 hours after placing the cells into differentiation medium. […] We kept the cells in LPC-supplemented differentiation medium for 16 hours, washed out LPC with LPC-free medium and 30 minutes later (˜24 hours after placing the cells into differentiation medium) scored fusion.
Formation of multinucleated myotubes was quantified as the percentage of cell nuclei present in myotubes normalized to the total number of cell nuclei. Hemifusion and fusion pore opening were quantified as a number of double-labeled mononucleated cells normalized to the total number of cell nuclei in the field. […]

[1] = system: Myomerger^−/− C2C12 myoblasts; assay: Synchronized fusion assay (LPC), Myomerger^−/− C2C12; type: cell-based; conditions: 50 μM CPZ 60 seconds at LPC removal, assayed after 30 minutes
From the text: as §1, §2

[2] = system: Myomerger^−/− C2C12 myoblasts; assay: Myoblast fusion assay (myosin+ cells, nuclei count), Myomerger-deficient myoblasts; type: cell-based
From the text: To specifically characterize different steps in fusion, we used 3 distinct assays: (i) hemifusion between cells labeled with membrane probe and content probe with unlabeled cells where hemifusion was detected as the appearance of lipid-labeled mononucleated cells without the content probe (FIG. 1A, FIG. 2A, FIG. 1E)); (ii) opening of a fusion pore in fusion between cells labeled with green cell tracker and cells labeled with orange cell tracker was detected as appearance of double-labeled cells (FIG. 1F); and (iii) fusion completion was detected as formation of multinucleated cells. […] Formation of multinucleated myotubes was quantified as the percentage of cell nuclei present in myotubes normalized to the total number of cell nuclei. Hemifusion and fusion pore opening were quantified as a number of double-labeled mononucleated cells normalized to the total number of cell nuclei in the field. For each condition, ≥8 randomly chosen fields of view were imaged. We also analyzed fusion by assessing the number of nuclei in myosin^+ cells. Here, cells were fixed with 4% paraformaldehyde (PFA)/PBS, permeabilized with 0.02% Triton X-100/PBS, and blocked with 3% BSA/PBS followed by immunostaining with myosin antibodies (MF 20, Developmental Studies Hybridoma Bank, 1:40) for one hour at room temperature. Alexa-Fluor secondary antibody (Invitrogen, 1:250) was incubated for 30 minutes at room temperature. Nuclei were stained with Hoechst (Invitrogen). Samples were imaged with a Nikon Eclipse inverted microscope with AIR confocal running NIS Elements and images were analyzed with Fiji (SCHINDELIN et al. (2012) “Fiji: an open-source platform for biological-image analysis” Nat Methods, Vol. 9, pp. 676-682, which is herein incorporated by reference in its entirety)
For detergent and recombinant protein application, 2.5×10^4 myoblasts per well of an 8-well μ-slide (Ibidi) were differentiated for 72 hours. 0.06% Octyl-β-Glucoside (OG) (Anatrace) in differentiation media was incubated for 30 minutes at 37° C. Cells were washed with PBS and switched back to normal differentiation media for 5 hours. For primary myoblasts, 3×10^4 cells were plated per well of an 8-well μ-slide (Ibidi) coated with fibronectin (Sigma-Aldrich, 5 μg/cm^2) and differentiated for 36 hours. Cells were treated with 0.06% OG in PBS for 30 minutes at 37° C., washed with PBS and switched back to normal differentiation media for 2 hours. For recombinant proteins, cells were treated with various concentrations of rMBP or rMBP-Myomerger^26-84 (0.5 μM, 1.25 μM, 3 μM, 6.25 μM and 12.5 μM), or 6.25 μM of Magainin 2 (AnaSpec), in differentiation media for 20 hours at 37° C.

[3] = system: Myomaker^−/− C2C12 myoblasts; assay: Myoblast fusion assay (myosin+ cells, nuclei count), Myomaker-deficient myoblasts; type: cell-based
From the text: (§3) To specifically characterize different steps in fusion, we used 3 distinct assays: (i) hemifusion between cells labeled with membrane probe and content probe with unlabeled cells where hemifusion was detected as the appearance of lipid-labeled mononucleated cells without the content probe (FIG. 1A, FIG. 2A, FIG. 1E)); (ii) opening of a fusion pore in fusion between cells labeled with green cell tracker and cells labeled with orange cell tracker was detected as appearance of double-labeled cells (FIG. 1F); and (iii) fusion completion was detected as formation of multinucleated cells. […] Formation of multinucleated myotubes was quantified as the percentage of cell nuclei present in myotubes normalized to the total number of cell nuclei. Hemifusion and fusion pore opening were quantified as a number of double-labeled mononucleated cells normalized to the total number of cell nuclei in the field. For each condition, ≥8 randomly chosen fields of view were imaged. We also analyzed fusion by assessing the number of nuclei in myosin^+ cells. […] Samples were imaged with a Nikon Eclipse inverted microscope with AIR confocal running NIS Elements and images were analyzed with Fiji (SCHINDELIN et al. (2012) “Fiji: an open-source platform for biological-image analysis” Nat Methods, Vol. 9, pp. 676-682, which is herein incorporated by reference in its entirety) […]

C2C12 myoblasts = assay: Myoblast fusion assay, WT myoblasts; type: cell-based
From the text: as §3

primary myoblasts = assay: Myoblast fusion assay, Myomerger-deficient primary myoblasts; type: cell-based, mouse; conditions: 0.06% OG in PBS 30 minutes
From the text: as §3

[4] = system: mouse Red Blood Cells (RBCs); assay: Red blood cell hemolysis (spectrophotometer); type: cell-based; conditions: Myomerger ectodomain at 25 μM
Protocol: Myomerger ectodomain (amino acids 26-84) was added to mouse Red Blood Cells (RBCs) and hemolysis was measured using a spectrophotometer (FIG. 9).

[5] = system: Escherichia coli (E. coli); assay: Bactericidal assay, colony forming units; type: cell-based; conditions: 25 μM, 2 hours
Protocol: (§4) Gram-positive bacteria Listeria monocytogenes (Lm) and gram-negative bacteria Escherichia coli (E. coli) were treated with 25 μM recombinant Myomerger ectodomain (labeled as “protein” in FIG. 8) for 2 hours.

[6] = system: Listeria monocytogenes (Lm); assay: Bactericidal assay, colony forming units; type: cell-based; conditions: 25 μM, 2 hours
Protocol: as §4

[7] = 0.06% OG 30 minutes on day 3 of differentiation, fusion assessed 5 hours after treatment
[8] = 6.25 μM Magainin 2, 20 hours on day 3 of differentiation

Q: How did the “fusion (syncytium formation)” value (WT C2C12 myoblasts) turn out when `CN(C)CCCN1c2ccccc2Sc2ccc(Cl)cc21` [CPZ, chlorpromazine] was run?
A: little effect

Q: What about the “fusion (syncytium formation)” value (Myomaker^−/− C2C12 cells) of the same molecule?
A: No fusion was observed

Q: And the “fusion (syncytium formation)” value [1]?
A: reached fusion levels observed for WT myoblasts

Q: Which fusion [2, 7] does the source give for `CCCCCCCCO[C@@H]1O[C@H](CO)[C@@H](O)[C@H](O)[C@H]1O` [OG, Octyl-β-Glucoside] here?
A: obvious fusion events; also recorded: induced fusion

Q: And the “percentage of myosin+ cells with 3 or ≥4 nuclei” value ([2]; OG treatment)?
A: increased the percentage of cells with 3 nuclei but also induced formation of myotubes with ≥4 nuclei

Q: And the fusion [3, 7]?
A: did not fuse

Q: And the fusion (C2C12 myoblasts; OG treatment)?
A: did not have an effect

Q: What about the fusion (primary myoblasts) of the same molecule?
A: compensate for loss of Myomerger

Q: Magainin 2 [Mag2] was tested. Which fusion [2, 8] did it give?
A: partially rescued fusion; also recorded: induced myotube formation

Q: What about the “percentage of myosin+ cells with 3 or ≥4 nuclei” value ([2]; Mag2 treatment) of the same molecule?
A: increased the percentage of cells with 3 nuclei but also induced formation of myotubes with ≥4 nuclei

Q: What about the fusion [3, 8] of the same molecule?
A: had no effect

Q: And the fusion (C2C12 myoblasts; Mag2 treatment)?
A: did not have an effect

Q: And the hemolysis [4]?
A: no measurable effect

B1: Myomerger ectodomain: recombinant Myomerger ectodomain (amino acids 26-84) used in Example Set B (protein)
chain: MPVPLLPMVLRSLLSRLLLPVARLARQHLLPLLRRLARRLSSQDMREALLSCLLFVLSQQQPPDSGEASRVDHSQRKERLGPQK
Q: Which “growth (colony forming units)” value [5] does the source give for B1 here?
A: disrupts the growth

Q: And the “growth (colony forming units)” value [6]?
A: disrupts the growth

Q: What about the “effect on Lm compared to E. coli” value ([6]; gram-positive vs gram-negative) of the same molecule?
A: more of an effect

Q: And the hemolysis [4]?
A: induced lysis
